Laboratory results published in article PMC9270327 (Communications Biology, 2022).
pKi: −log10 of the molar value. Where a SMILES comes first, the peptide text is derived from it. The star is where a group is joined. AMC = Cc1cc(=O)oc2cc(N*)ccc12; Boc = CC(C)(C)OC(=O)*

Experiments:
[1] = target: T1, recombinant human matriptase (Homo sapiens, UniProt Q9Y5Y6); assay: Enzyme inhibition assay with purified matriptase (Ki, dose-response); format: biochemical; conditions: for matriptase activity, Mean (Fig. 2b): normalized, 0 nM = 100
T1 construct: purchased R&D Systems (Minneapolis, MN, USA)
T1 sequence (Q9Y5Y6 1-855): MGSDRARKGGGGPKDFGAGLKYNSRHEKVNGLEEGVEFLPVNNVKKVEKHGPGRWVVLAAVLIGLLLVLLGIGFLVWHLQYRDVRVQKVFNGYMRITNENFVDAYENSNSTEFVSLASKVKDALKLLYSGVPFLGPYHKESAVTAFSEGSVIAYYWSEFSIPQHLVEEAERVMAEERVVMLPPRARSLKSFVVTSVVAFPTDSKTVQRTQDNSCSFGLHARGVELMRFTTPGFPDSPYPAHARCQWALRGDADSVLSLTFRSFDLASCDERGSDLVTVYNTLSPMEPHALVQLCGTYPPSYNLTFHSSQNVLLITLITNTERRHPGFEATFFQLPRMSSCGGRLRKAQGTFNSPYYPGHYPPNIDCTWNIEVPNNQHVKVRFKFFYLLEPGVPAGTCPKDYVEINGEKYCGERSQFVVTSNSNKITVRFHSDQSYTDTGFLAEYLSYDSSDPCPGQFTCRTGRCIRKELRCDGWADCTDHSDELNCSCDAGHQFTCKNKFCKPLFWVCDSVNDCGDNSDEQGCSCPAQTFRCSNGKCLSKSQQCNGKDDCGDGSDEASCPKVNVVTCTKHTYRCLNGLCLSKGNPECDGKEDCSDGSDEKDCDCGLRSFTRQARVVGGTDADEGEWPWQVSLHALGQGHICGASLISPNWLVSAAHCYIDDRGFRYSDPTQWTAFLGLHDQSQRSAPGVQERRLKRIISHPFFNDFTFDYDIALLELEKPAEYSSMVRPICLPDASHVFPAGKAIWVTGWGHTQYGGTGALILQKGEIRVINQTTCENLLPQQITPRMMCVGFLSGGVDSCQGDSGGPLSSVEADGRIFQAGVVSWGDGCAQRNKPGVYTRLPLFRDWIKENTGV

[2] = target: T2, recombinant human thrombin (Homo sapiens, UniProt P00734); assay: Enzyme inhibition assay with purified thrombin (Ki, dose-response); format: biochemical; conditions: for thrombin activity, Mean (Fig. 2c): normalized
T2 construct: purchased R&D Systems (Minneapolis, MN, USA)
Text: (§1) Recombinant human TMPRSS2 was purchased from Creative BioMart (New York, USA) or LSBio (Seattle, USA), factor Xa was obtained from Bio-Techne GmbH (Wiesbaden, Germany). Recombinant human thrombin and matriptase protein were purchased from R&D Systems (Minneapolis, MN, USA).

factor Xa = target: T3, factor Xa (Homo sapiens, UniProt P00742); assay: Enzyme inhibition assay with purified factor Xa (Ki, dose-response); format: biochemical; conditions: for factor Xa activity, Mean (Fig. 2d): normalized, 0 nM = 100
T3 construct: purchased Bio-Techne GmbH (Wiesbaden, Germany)
Text: as §1

[3] = iv; cited from earlier work
TMPRSS2 = TMPRSS2 (Homo sapiens, UniProt O15393); assay: Michaelis-Menten constant of the fluorogenic reference substrate; conditions: read-out: Michaelis-Menten constant KM for TMPRSS2
Experimental: The measurements were performed on a Tecan infinite® M1000 and the fluorescence intensity was measured by exciting the AMC fluorophore at 380 nm wavelength and recording emission at 460 nm wavelength. […] Fluorescence intensities and absorption were measured every 2 min for 2 h or as endpoint after 2 h.
Supplementary Figure 2 Michaelis-Menten constant (KM) of the fluorogenic reference substrate
The data points were plotted using the Michaelis -Menten
equation in GraphPad Prism prism version 8.4.2 (San Diego, California). Shown are the means ± SD of
n=1 experiment performed in triplicates.

[4] = 30 min preincubation, substrate Boc-Gln-Ala-Arg-AMC
[5] = 30 min preincubation, substrate D-Phe-Homopro-Arg-pNA
[6] = 30 min preincubation, substrate Bz-Ile-Glu-Gly-Arg-pNA

T3 sequence (P00742 235-488 limits assumed): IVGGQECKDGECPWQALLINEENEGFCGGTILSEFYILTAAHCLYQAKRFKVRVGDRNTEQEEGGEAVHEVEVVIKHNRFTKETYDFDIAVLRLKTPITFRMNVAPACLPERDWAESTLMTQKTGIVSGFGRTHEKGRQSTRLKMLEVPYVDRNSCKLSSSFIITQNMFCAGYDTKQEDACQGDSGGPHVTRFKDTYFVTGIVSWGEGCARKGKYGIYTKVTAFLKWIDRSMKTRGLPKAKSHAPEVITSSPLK
T3 sequence (P00742 41-179 partner limits assumed): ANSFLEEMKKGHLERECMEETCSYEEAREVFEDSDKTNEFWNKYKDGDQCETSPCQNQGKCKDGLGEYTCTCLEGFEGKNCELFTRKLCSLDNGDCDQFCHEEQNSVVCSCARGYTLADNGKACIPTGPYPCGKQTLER
Chain of TMPRSS2 (O15393 whole entry): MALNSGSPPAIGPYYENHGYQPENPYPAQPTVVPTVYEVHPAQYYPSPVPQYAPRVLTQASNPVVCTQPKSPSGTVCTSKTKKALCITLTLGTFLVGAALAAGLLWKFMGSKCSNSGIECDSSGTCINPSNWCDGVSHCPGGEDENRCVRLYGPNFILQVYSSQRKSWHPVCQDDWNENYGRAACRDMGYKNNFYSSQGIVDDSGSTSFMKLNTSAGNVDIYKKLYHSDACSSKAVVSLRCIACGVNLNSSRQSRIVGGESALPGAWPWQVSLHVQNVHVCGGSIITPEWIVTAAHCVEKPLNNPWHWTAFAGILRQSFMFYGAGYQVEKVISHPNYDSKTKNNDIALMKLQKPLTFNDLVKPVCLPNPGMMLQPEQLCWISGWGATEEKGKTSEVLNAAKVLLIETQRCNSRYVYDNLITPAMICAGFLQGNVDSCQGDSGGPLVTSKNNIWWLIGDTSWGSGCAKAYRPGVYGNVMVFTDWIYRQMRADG

For `CC(=O)N[C@H](CCCNC(=N)N)C(=O)N[C@@H](CC1CCC1)C(=O)N[C@H](CO)CCCNC(=N)N` [Cpd. 7 alcohol], the “Ki Matriptase” value [1, 4] was “n.i”, the “matriptase activity, Mean (control = 100), S6a” value (“matriptase activity, Mean … S6a” for short) ([1]; inhibitor 10 nM) was 90.4903 and the “matriptase activity, Mean … S6a” value ([1]; inhibitor 100 nM) was 101.634. The “matriptase activity, Mean … S6a” value ([1]; inhibitor 1000 nM) was 101.337, the “matriptase activity, Mean … S6a” value ([1]; inhibitor 50000 nM) was 91.3819 and the “matriptase activity, Mean … S6a” value ([1]; inhibitor 500000 nM) was 44.4279. For the same molecule, the “Ki Thrombin” value [2, 5] was “n.i”, the “thrombin activity, Mean (control = 100), S6b” value (from here on “thrombin activity, Mean … S6b”) ([2]; inhibitor 0.2 nM) was 90.7019 and the “thrombin activity, Mean … S6b” value ([2]; inhibitor 2 nM) was 92.977. The “thrombin activity, Mean … S6b” value ([2]; inhibitor 20 nM) was 91.1965, the “thrombin activity, Mean … S6b” value ([2]; inhibitor 200 nM) was 95.4993 and the “thrombin activity, Mean … S6b” value ([2]; inhibitor 10000 nM) was 93.8672. The “thrombin activity, Mean … S6b” value ([2]; inhibitor 100000 nM) was 91.2954, the “Ki Factor Xa” value (factor Xa; [6]) was “n.i” and the “factor Xa activity, Mean (control = 100), S6c” value (“factor Xa activity, Mean … S6c” below) (factor Xa; inhibitor 0.2 nM) was 93.6065. For the same molecule, the “factor Xa activity, Mean … S6c” value (factor Xa; inhibitor 2 nM) was 101.454, the “factor Xa activity, Mean … S6c” value (factor Xa; inhibitor 20 nM) was 95.9299 and the “factor Xa activity, Mean … S6c” value (factor Xa; inhibitor 200 nM) was 88.9574. The “factor Xa activity, Mean … S6c” value (factor Xa; inhibitor 10000 nM) was 78.1999 and the “factor Xa activity, Mean … S6c” value (factor Xa; inhibitor 100000 nM) was 120.06.
For `CC(=O)NC(CCCNC(=N)N)C(=O)NC(CC1CCC1)C(=O)NC(CCCNC(=N)N)C(=O)c1nccs1` (stereo not shown) [Cpd. 7 ketothiazole], the pKi [1, 4] was 6.85, the “matriptase activity, Mean … S6a” value ([1]; inhibitor 0.1 nM) was 103.606 and the “matriptase activity, Mean … S6a” value ([1]; inhibitor 0.2 nM) was 101.185. The “matriptase activity, Mean … S6a” value ([1]; inhibitor 1 nM) was 109.016, the “matriptase activity, Mean … S6a” value ([1]; inhibitor 10 nM) was 101.829 and the “matriptase activity, Mean … S6a” value ([1]; inhibitor 100 nM) was 75.1932. The “matriptase activity, Mean … S6a” value ([1]; inhibitor 1000 nM) was 21.355, the “matriptase activity, Mean … S6a” value ([1]; inhibitor 50000 nM) was 0.4637 and the “matriptase activity, Mean … S6a” value ([1]; inhibitor 500000 nM) was -0.1803. For the same molecule, the “Ki Thrombin” value [2, 5] was “n.i”, the “thrombin activity, Mean … S6b” value ([2]; inhibitor 0.02 nM) was 96.7111 and the “thrombin activity, Mean … S6b” value ([2]; inhibitor 0.04 nM) was 101.49. For the same molecule, the “thrombin activity, Mean … S6b” value ([2]; inhibitor 0.2 nM) was 101.233, the “thrombin activity, Mean … S6b” value ([2]; inhibitor 2 nM) was 107.554 and the “thrombin activity, Mean … S6b” value ([2]; inhibitor 20 nM) was 101.388. The “thrombin activity, Mean … S6b” value ([2]; inhibitor 200 nM) was 101.233, the “thrombin activity, Mean … S6b” value ([2]; inhibitor 10000 nM) was 98.2014 and the “thrombin activity, Mean … S6b” value ([2]; inhibitor 100000 nM) was 83.6589. The pKi (factor Xa; [6]) was 7.01, the “factor Xa activity, Mean … S6c” value (factor Xa; inhibitor 0.02 nM) was 95.3485 and the “factor Xa activity, Mean … S6c” value (factor Xa; inhibitor 0.04 nM) was 90.4387. For the same molecule, the “factor Xa activity, Mean … S6c” value (factor Xa; inhibitor 0.2 nM) was 87.8566, the “factor Xa activity, Mean … S6c” value (factor Xa; inhibitor 2 nM) was 87.8545 and the “factor Xa activity, Mean … S6c” value (factor Xa; inhibitor 20 nM) was 82.4299. The “factor Xa activity, Mean … S6c” value (factor Xa; inhibitor 200 nM) was 52.1976, the “factor Xa activity, Mean … S6c” value (factor Xa; inhibitor 10000 nM) was 2.584 and the “factor Xa activity, Mean … S6c” value (factor Xa; inhibitor 100000 nM) was 3.101.
In the case of `NC(N)=Nc1ccc(C(=O)Oc2ccc(CC(=O)O)cc2)cc1` [FOY-251, reference compound], the in vivo half-life [3] is given as 1 to 1.67 h, the “matriptase activity, Mean (Fig. 2b)” value ([1]; 0.05 nM) is given as 110.25 and the “matriptase activity, Mean (Fig. 2b)” value ([1]; 0.5 nM) is given as 111.62. For the same molecule, the “matriptase activity, Mean (Fig. 2b)” value ([1]; 5 nM) was 106.849, the “matriptase activity, Mean (Fig. 2b)” value ([1]; 50 nM) was 97.213 and the “matriptase activity, Mean (Fig. 2b)” value ([1]; 500 nM) was 35.5692. The “matriptase activity, Mean (Fig. 2b)” value ([1]; 5000 nM) was 1.606, the “matriptase activity, Mean (Fig. 2b)” value ([1]; 50000 nM) was 0.2362 and the “matriptase activity, Mean (Fig. 2b)” value ([1]; 500000 nM) was 0.1417. For the same molecule, the pKi [1, 4] was 6.76, the “thrombin activity, Mean (Fig. 2c)” value ([2]; 0.01 nM) was 101.844 and the “thrombin activity, Mean (Fig. 2c)” value ([2]; 0.02 nM, 0 nM = 100) was 101.898. For the same molecule, the “thrombin activity, Mean (Fig. 2c)” value ([2]; 0.04 nM, 0 nM = 100) was 101.898, the “thrombin activity, Mean (Fig. 2c)” value ([2]; 0.2 nM, 0 nM = 100) was 101.356 and the “thrombin activity, Mean (Fig. 2c)” value ([2]; 2 nM, 0 nM = 100) was 99.0781. The “thrombin activity, Mean (Fig. 2c)” value ([2]; 20 nM, 0 nM = 100) was 102.277, the “thrombin activity, Mean (Fig. 2c)” value ([2]; 10000 nM, 0 nM = 100) was 93.0588 and the “thrombin activity, Mean (Fig. 2c)” value ([2]; 100000 nM, 0 nM = 100) was 44.1974. For the same molecule, the pKi [2, 5] was < 4.30, the “factor Xa activity, Mean (Fig. 2d)” value (factor Xa; 0.02 nM) was 91.2533 and the “factor Xa activity, Mean (Fig. 2d)” value (factor Xa; 0.04 nM) was 91.3991. The “factor Xa activity, Mean (Fig. 2d)” value (factor Xa; 0.2 nM) was 72.8853, the “factor Xa activity, Mean (Fig. 2d)” value (factor Xa; 2 nM) was 86.5885 and the “factor Xa activity, Mean (Fig. 2d)” value (factor Xa; 20 nM) was 82.2151. For the same molecule, the “factor Xa activity, Mean (Fig. 2d)” value (factor Xa; 200 nM) was 72.5938, the “factor Xa activity, Mean (Fig. 2d)” value (factor Xa; 10000 nM) was 34.986 and the “factor Xa activity, Mean (Fig. 2d)” value (factor Xa; 100000 nM) was 16.3265. The pKi (factor Xa; [6]) was 6.16.
Molecule `Cc1cc(=O)oc2cc(NC(=O)[C@H](CCCN=C(N)N)NC(=O)[C@H](C)NC(=O)[C@H](CCC(N)=O)NC(=O)OC(C)(C)C)ccc12` [Boc-Gln-Ala-Arg-AMC] (Boc-Gln-Ala-Arg-{AMC}) has a Km (TMPRSS2) of 77 µM.
